From ChEMBL document CHEMBL5149981, “Carboxylesterase Notum Is a Druggable Target to Modulate Wnt Signaling” (J Med Chem, 2021)

Columns and labels:
[1] = molecular target: T1, Palmitoleoyl-protein carboxylesterase NOTUM (Homo sapiens, UniProt Q6P988)
T1 sequence (Q6P988 whole entry): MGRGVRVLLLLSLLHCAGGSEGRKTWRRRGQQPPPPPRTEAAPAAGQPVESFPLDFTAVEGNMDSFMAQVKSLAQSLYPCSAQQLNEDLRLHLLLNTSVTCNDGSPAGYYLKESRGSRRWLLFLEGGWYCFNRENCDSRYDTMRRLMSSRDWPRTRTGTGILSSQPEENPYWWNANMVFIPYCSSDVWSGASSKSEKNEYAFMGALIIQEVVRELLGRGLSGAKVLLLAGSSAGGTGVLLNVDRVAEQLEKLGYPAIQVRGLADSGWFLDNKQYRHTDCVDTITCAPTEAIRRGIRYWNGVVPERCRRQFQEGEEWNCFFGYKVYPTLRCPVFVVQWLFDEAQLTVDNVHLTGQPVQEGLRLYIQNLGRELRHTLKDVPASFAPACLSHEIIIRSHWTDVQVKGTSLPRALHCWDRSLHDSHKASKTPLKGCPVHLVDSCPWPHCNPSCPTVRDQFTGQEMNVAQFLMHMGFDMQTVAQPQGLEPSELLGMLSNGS
Description: Inhibition of C-terminal His-V5 tagged human Notum expressed in human HEK293F cells harbouring TCF/LEF luciferase reporter gene assessed as activation of Wnt signaling using WNT3A as substrate by Steady-Glo luciferase assay

[2] = molecular target: T1, Palmitoleoyl-protein carboxylesterase NOTUM; remark: listed apart in the source
Description: Inhibition of human Notum using OPTS substrate by fluorescence based assay

[3] = molecular target: T1, Palmitoleoyl-protein carboxylesterase NOTUM; remark: listed apart in the source
Description: Inhibition of human Notum using OPTS substrate incubated for 1 hr by fluorescence based assay

| SMILES | EC50 [1] [µM] | IC50 [2] [µM] | IC50 [3] [µM] |
| --- | --- | --- | --- |
| Cc1sc2ncnc(SCC(=O)O)c2c1Cl | 0.157 | 0.002 | – |
| Cc1ccccc1OCC(=O)Nc1cccnc1 | – | – | 33 |
| CC(=O)NCCc1c[nH]c2ccc(O)cc12 [ACETYLSEROTONIN] | – | 93.6 | – |
